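Interpolation was linear, between the two tested concentrations surrounding the appropriate level; five concentrations were tested over 48 hours in 96-well plates. GI50: concentration for 50% inhibition of growth.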 Activity calls are given as the source filed them. Cut-off read from the data, not from the text of the source: active = GI50 up to about 1.1 µM and inactive = higher.
Legend:
Experiment in all cases: NCI anticancer screen, dose series, 48 h
786-0 = tested on: 786-0
A498 = tested on: A498
A549 = tested on: A549
ACHN = tested on: ACHN
CAKI-1 = tested on: CAKI-1
CCRF-CEM = tested on: CCRF-CEM
COLO 205 = tested on: COLO 205
DLD-1 = tested on: DLD-1
DMS-114 = tested on: DMS-114
DMS-273 = tested on: DMS-273
EKVX = tested on: EKVX
HCC 2998 = tested on: HCC 2998
HCT-116 = tested on: HCT-116
HCT-15 = tested on: HCT-15
HL-60 = tested on: HL-60
HOP-18 = tested on: HOP-18
HOP-62 = tested on: HOP-62
HOP-92 = tested on: HOP-92
HT-29 = tested on: HT-29
IGROV-1 = tested on: IGROV-1
K562 = tested on: K562
KM-20L2 = tested on: KM-20L2
KM12 = tested on: KM12
LOX IMVI = tested on: LOX IMVI
LXFL 529 = tested on: LXFL 529
M14 = tested on: M14
M19-MEL = tested on: M19-MEL
MOLT-4 = tested on: MOLT-4
Malme-3M = tested on: Malme-3M
NCI-H226 = tested on: NCI-H226
NCI-H23 = tested on: NCI-H23
NCI-H460 = tested on: NCI-H460
NCI-H522 = tested on: NCI-H522
OVCAR-3 = tested on: OVCAR-3
OVCAR-4 = tested on: OVCAR-4
OVCAR-5 = tested on: OVCAR-5
OVCAR-8 = tested on: OVCAR-8
RPMI-8226 = tested on: RPMI-8226
RXF 393 = tested on: RXF 393
RXF 631 = tested on: RXF 631
SF-268 = tested on: SF-268
SF-295 = tested on: SF-295
SF-539 = tested on: SF-539
SK-MEL-28 = tested on: SK-MEL-28
SK-MEL-2 = tested on: SK-MEL-2
SK-MEL-5 = tested on: SK-MEL-5
SK-OV-3 = tested on: SK-OV-3
SN12C = tested on: SN12C
SNB-19 = tested on: SNB-19
SNB-75 = tested on: SNB-75
SNB-78 = tested on: SNB-78
SR = tested on: SR
SW-620 = tested on: SW-620
TK-10 = tested on: TK-10
U-251 = tested on: U-251
UACC-257 = tested on: UACC-257
UACC-62 = tested on: UACC-62
UO-31 = tested on: UO-31
XF498 = tested on: XF498

Measured: GI50

Cc1ccc(NC(=O)CC2C(=O)Nc3ccccc3[S+]2[O-])c(C)c1 (centres undefined)
inactive: 786-0 15.1 µM | A498 18.9 µM | A549 16.1 µM | ACHN 21 µM | CAKI-1 11 µM | CCRF-CEM 11.5 µM | COLO 205 7.52 µM | DLD-1 15.3 µM | DMS-114 7.94 µM | DMS-273 6.15 µM | EKVX > 61.7 µM | HCC 2998 20 µM | HCT-116 8.69 µM | HL-60 2.86 µM | HOP-18 28.1 µM | HOP-62 16.4 µM | HOP-92 13.9 µM | HT-29 4.35 µM | IGROV-1 12.8 µM | K562 4.03 µM | KM-20L2 12.3 µM | KM12 4.6 µM | LOX IMVI 16.4 µM | LXFL 529 16.5 µM | M14 6.78 µM | M19-MEL 13.1 µM | MOLT-4 6.28 µM | Malme-3M 18.4 µM | NCI-H226 16.2 µM | NCI-H23 14.9 µM | NCI-H460 13 µM | NCI-H522 6.89 µM | OVCAR-3 9.51 µM | OVCAR-4 17.3 µM | OVCAR-5 53.7 µM | OVCAR-8 16.9 µM | RPMI-8226 12.1 µM | RXF 393 8.61 µM | RXF 631 17.2 µM | SF-268 24.5 µM | SF-295 12.8 µM | SF-539 12.9 µM | SK-MEL-28 15.8 µM | SK-MEL-2 9.35 µM | SK-MEL-5 4.11 µM | SK-OV-3 17.6 µM | SN12C 30.5 µM | SNB-19 11.7 µM | SNB-75 11.7 µM | SNB-78 16.4 µM | SR 2.9 µM | SW-620 5.81 µM | TK-10 22.4 µM | U-251 10.8 µM | UACC-257 50.8 µM | UACC-62 7.23 µM | UO-31 19.3 µM | XF498 10.4 µM
4.94 µM: HCT-15

— ChEMBL document CHEMBL1201862, “PubChem BioAssay data set” (2004)
